Measurements from PubChem BioAssay (NCI).
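Where inhibition never reached the appropriate level, the endpoint shown equals the highest concentration tested. Otherwise, values were interpolated linearly from a five-concentration, 48-hour dose response in 96-well plates. Definition used: TGI = concentration required for complete inhibition of growth.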

Experiments:
Assay in all cases: NCI tumour cell line growth inhibition, 48 h
OVCAR-3 ovarian = system: OVCAR-3 ovarian
HT29 colon = system: HT29 colon
HOP-18 NSCLC = system: HOP-18 NSCLC
RXF-631 renal = system: RXF-631 renal
HCT-15 colon = system: HCT-15 colon
ACHN renal = system: ACHN renal
MALME-3M melanoma = system: MALME-3M melanoma
RXF 393 renal = system: RXF 393 renal
A498 renal = system: A498 renal
XF 498 CNS = system: XF 498 CNS
HOP-62 NSCLC = system: HOP-62 NSCLC
HCC-2998 colon = system: HCC-2998 colon
NCI-H226 lung = system: NCI-H226 lung
SK-MEL-2 melanoma = system: SK-MEL-2 melanoma
UO-31 renal = system: UO-31 renal
OVCAR-5 ovarian = system: OVCAR-5 ovarian
KM12 colon = system: KM12 colon
SF-539 CNS = system: SF-539 CNS
A549 NSCLC = system: A549 NSCLC
LXFL 529 NSCLC = system: LXFL 529 NSCLC
SF-295 CNS = system: SF-295 CNS
COLO 205 colon = system: COLO 205 colon
HCT-116 colon = system: HCT-116 colon
SR leukemia = system: SR leukemia
M19-MEL melanoma = system: M19-MEL melanoma
IGROV1 ovarian = system: IGROV1 ovarian
SK-MEL-28 melanoma = system: SK-MEL-28 melanoma
U251 CNS = system: U251 CNS
DLD-1 colon = system: DLD-1 colon
HL-60(TB) leukemia = system: HL-60(TB) leukemia
SK-OV-3 ovarian = system: SK-OV-3 ovarian
OVCAR-8 ovarian = system: OVCAR-8 ovarian
NCI-H522 lung = system: NCI-H522 lung
CCRF-CEM leukemia = system: CCRF-CEM leukemia
HOP-92 NSCLC = system: HOP-92 NSCLC
SNB-75 CNS = system: SNB-75 CNS
SNB-19 CNS = system: SNB-19 CNS
TK-10 renal = system: TK-10 renal
UACC-257 melanoma = system: UACC-257 melanoma
NCI-H23 lung = system: NCI-H23 lung
M14 melanoma = system: M14 melanoma
LOX IMVI melanoma = system: LOX IMVI melanoma
SK-MEL-5 melanoma = system: SK-MEL-5 melanoma
NCI-H460 lung = system: NCI-H460 lung
UACC-62 melanoma = system: UACC-62 melanoma
SN12C renal = system: SN12C renal
DMS 114 small cell lung = system: DMS 114 small cell lung
K-562 leukemia = system: K-562 leukemia
786-0 renal = system: 786-0 renal
SNB-78 CNS = system: SNB-78 CNS
RPMI-8226 leukemia = system: RPMI-8226 leukemia
MOLT-4 leukemia = system: MOLT-4 leukemia
KM20L2 colon = system: KM20L2 colon
CAKI-1 renal = system: CAKI-1 renal
SF-268 CNS = system: SF-268 CNS
EKVX NSCLC = system: EKVX NSCLC
OVCAR-4 ovarian = system: OVCAR-4 ovarian
SW-620 colon = system: SW-620 colon

SMILES: CN1CC[C@]2(C)c3c(O)cccc3CC3CCCC1C32C (stereo partly drawn)
- TGI (OVCAR-3 ovarian): > 100 µM
- TGI (HT29 colon): > 100 µM
- TGI (HOP-18 NSCLC): > 100 µM
- TGI (RXF-631 renal): > 100 µM
- TGI (HCT-15 colon): > 100 µM
- TGI (ACHN renal): > 100 µM
- TGI (MALME-3M melanoma): > 100 µM
- TGI (RXF 393 renal): > 100 µM
- TGI (A498 renal): > 100 µM
- TGI (XF 498 CNS): > 100 µM
- TGI (HOP-62 NSCLC): > 100 µM
- TGI (HCC-2998 colon): 72.7 µM
- TGI (NCI-H226 lung): > 100 µM
- TGI (SK-MEL-2 melanoma): > 100 µM
- TGI (UO-31 renal): > 100 µM
- TGI (OVCAR-5 ovarian): > 100 µM
- TGI (KM12 colon): > 100 µM
- TGI (SF-539 CNS): > 100 µM
- TGI (A549 NSCLC): > 100 µM
- TGI (LXFL 529 NSCLC): > 100 µM
- TGI (SF-295 CNS): > 100 µM
- TGI (COLO 205 colon): > 100 µM
- TGI (HCT-116 colon): > 100 µM
- TGI (SR leukemia): > 100 µM
- TGI (M19-MEL melanoma): > 100 µM
- TGI (IGROV1 ovarian): > 100 µM
- TGI (SK-MEL-28 melanoma): > 100 µM
- TGI (U251 CNS): > 100 µM
- TGI (DLD-1 colon): > 100 µM
- TGI (HL-60(TB) leukemia): > 100 µM
- TGI (SK-OV-3 ovarian): > 100 µM
- TGI (OVCAR-8 ovarian): > 100 µM
- TGI (NCI-H522 lung): > 100 µM
- TGI (CCRF-CEM leukemia): > 100 µM
- TGI (HOP-92 NSCLC): > 100 µM
- TGI (SNB-75 CNS): > 100 µM
- TGI (SNB-19 CNS): > 100 µM
- TGI (TK-10 renal): > 100 µM
- TGI (UACC-257 melanoma): > 100 µM
- TGI (NCI-H23 lung): > 100 µM
- TGI (M14 melanoma): > 100 µM
- TGI (LOX IMVI melanoma): > 100 µM
- TGI (SK-MEL-5 melanoma): > 100 µM
- TGI (NCI-H460 lung): > 100 µM
- TGI (UACC-62 melanoma): > 100 µM
- TGI (SN12C renal): > 100 µM
- TGI (DMS 114 small cell lung): > 100 µM
- TGI (K-562 leukemia): > 100 µM
- TGI (786-0 renal): > 100 µM
- TGI (SNB-78 CNS): > 100 µM
- TGI (RPMI-8226 leukemia): > 100 µM
- TGI (MOLT-4 leukemia): > 100 µM
- TGI (KM20L2 colon): > 100 µM
- TGI (CAKI-1 renal): > 100 µM
- TGI (SF-268 CNS): > 100 µM
- TGI (EKVX NSCLC): > 100 µM

SMILES: Cc1ncc(CCl)c2c1OC(C)(C)OC2
- TGI (OVCAR-3 ovarian): 69.7 µM
- TGI (HT29 colon): > 100 µM
- TGI (HOP-18 NSCLC): 36 µM
- TGI (OVCAR-4 ovarian): 28.4 µM
- TGI (RXF-631 renal): 73.9 µM
- TGI (ACHN renal): 45.4 µM
- TGI (MALME-3M melanoma): 37 µM
- TGI (SW-620 colon): 34 µM
- TGI (RXF 393 renal): 29.5 µM
- TGI (A498 renal): > 100 µM
- TGI (XF 498 CNS): > 100 µM
- TGI (HOP-62 NSCLC): > 100 µM
- TGI (HCC-2998 colon): > 100 µM
- TGI (NCI-H226 lung): > 100 µM
- TGI (SK-MEL-2 melanoma): > 100 µM
- TGI (UO-31 renal): > 100 µM
- TGI (OVCAR-5 ovarian): 40.3 µM
- TGI (KM12 colon): > 100 µM
- TGI (SF-539 CNS): > 100 µM
- TGI (A549 NSCLC): > 100 µM
- TGI (LXFL 529 NSCLC): > 100 µM
- TGI (SF-295 CNS): > 100 µM
- TGI (HCT-116 colon): 65.8 µM
- TGI (M19-MEL melanoma): > 100 µM
- TGI (IGROV1 ovarian): > 100 µM
- TGI (SK-MEL-28 melanoma): 56.6 µM
- TGI (U251 CNS): 27.5 µM
- TGI (DLD-1 colon): > 100 µM
- TGI (HL-60(TB) leukemia): 65.2 µM
- TGI (SK-OV-3 ovarian): > 100 µM
- TGI (OVCAR-8 ovarian): > 100 µM
- TGI (NCI-H522 lung): 32.6 µM
- TGI (CCRF-CEM leukemia): > 100 µM
- TGI (HOP-92 NSCLC): 73.1 µM
- TGI (SNB-19 CNS): > 100 µM
- TGI (TK-10 renal): > 100 µM
- TGI (UACC-257 melanoma): > 100 µM
- TGI (NCI-H23 lung): > 100 µM
- TGI (M14 melanoma): > 100 µM
- TGI (LOX IMVI melanoma): 33.5 µM
- TGI (NCI-H460 lung): > 100 µM
- TGI (UACC-62 melanoma): > 100 µM
- TGI (SN12C renal): > 100 µM
- TGI (DMS 114 small cell lung): > 100 µM
- TGI (K-562 leukemia): > 100 µM
- TGI (786-0 renal): 41.2 µM
- TGI (SNB-78 CNS): > 100 µM
- TGI (RPMI-8226 leukemia): > 100 µM
- TGI (MOLT-4 leukemia): > 100 µM
- TGI (KM20L2 colon): > 100 µM
- TGI (SF-268 CNS): 53.6 µM
- TGI (EKVX NSCLC): 41.4 µM
